Measured values taken from PubChem BioAssay AID330 (DTP/NCI, 2004).
Where “and” joins values, the source holds several entries; their conditions need not be identical. Identical values can stand only once. Inconclusive results and toxic doses are left out.

Tested on: P388 leukemia ip, CD2F1 mice, survival T/C
Experiment: NCI In Vivo Anticancer Drug Screen. Data for tumor model P388 Leukemia (intraperitoneal) in CD2F1 (CDF1) mice
Details: endpoint: median survival time, higher = longer survival
Summary of the method: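 Mice carrying the transplanted tumor received test compound or vehicle. Survival was recorded in each group, and the value is the treated-group measurement divided by that of the vehicle-treated control group.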

[1] = dose: 60.0 mg/kg/injection, schedule: Q01DX005 (ip), vehicle: saline with Tween-80
[2] = dose: 120.0 mg/kg/injection, schedule: Q01DX005 (ip), vehicle: saline with Tween-80
[3] = dose: 240.0 mg/kg/injection, schedule: Q01DX005 (ip), vehicle: saline with Tween-80
[4] = dose: 100.0 mg/kg/injection, schedule: Q04DX002 (ip), vehicle: saline with Tween-80
[5] = dose: 50.0 mg/kg/injection, schedule: Q01DX005 (ip), vehicle: saline with Tween-80
[6] = dose: 100.0 mg/kg/injection, schedule: Q01DX005 (ip), vehicle: saline with Tween-80
[7] = dose: 200.0 mg/kg/injection, schedule: Q01DX005 (ip), vehicle: saline with Tween-80
[8] = dose: 50.0 mg/kg/injection, schedule: Q01DX009 (ip), vehicle: Klucel (hydroxypropylcellulose) (HPC)
[9] = dose: 100.0 mg/kg/injection, schedule: Q01DX009 (ip), vehicle: Klucel (hydroxypropylcellulose) (HPC)
[10] = dose: 200.0 mg/kg/injection, schedule: Q01DX009 (ip), vehicle: Klucel (hydroxypropylcellulose) (HPC)
[11] = dose: 100.0 mg/kg/injection, schedule: Q04DX003 (ip), vehicle: saline with Tween-80
[12] = dose: 200.0 mg/kg/injection, schedule: Q04DX003 (ip), vehicle: saline with Tween-80
[13] = dose: 400.0 mg/kg/injection, schedule: Q04DX003 (ip), vehicle: saline with Tween-80
[14] = dose: 12.5 mg/kg/injection, schedule: Q04DX003 (ip), vehicle: saline with Tween-80
[15] = dose: 25.0 mg/kg/injection, schedule: Q04DX003 (ip), vehicle: saline with Tween-80
[16] = dose: 25.0 mg/kg/injection, schedule: Q04DX003 (ip), vehicle: saline
[17] = dose: 100.0 mg/kg/injection, schedule: Q04DX003 (ip), vehicle: saline
[18] = dose: 400.0 mg/kg/injection, schedule: Q04DX003 (ip), vehicle: saline

Cn1c(=O)cc2n(C)c3ccccc3n2c1=O
T/C [1]: 96 % of control
T/C [2]: 100 % of control
T/C [3]: 97 % of control

Fc1c2ccccc2c2ccc3cccc4ccc1c2c43
T/C (dose: 50.0 mg/kg/injection, schedule: Q04DX002 (ip), vehicle: saline): 103 % of control and 104 % of control
T/C [4]: 117 % of control
T/C (dose: 100.0 mg/kg/injection, schedule: Q04DX002 (ip), vehicle: saline): 100 % of control and 110 % of control
T/C (dose: 200.0 mg/kg/injection, schedule: Q04DX002 (ip), vehicle: saline): 100 % of control and 113 % of control
T/C (dose: 400.0 mg/kg/injection, schedule: Q04DX002 (ip), vehicle: saline): 103 % of control

Cc1cccc(N=C(c2ccccc2)C2C(=O)c3ccccc3C2=O)c1
T/C [5]: 94 % of control
T/C [6]: 94 % of control
T/C [7]: 91 % of control

O=C(O)CCC(=O)NCC1CCCC(CNC(=O)CCC(=O)O)C1 (centres undefined)
T/C [8]: 96 % of control
T/C [9]: 110 % of control
T/C [10]: 101 % of control

NC(C[O-])C(=O)[O-].NCC(=O)[O-].[Mn+3] (centres undefined)
T/C [4]: 114 % of control
T/C (dose: 200.0 mg/kg/injection, schedule: Q04DX002 (ip), vehicle: saline with Tween-80): 113 % of control

O=C1OC2=C(CCCCC2)C(N2CCCCC2)C12SCCCS2 (centres undefined)
T/C (dose: 66.0 mg/kg/injection, schedule: Q04DX003 (ip), vehicle: saline with Tween-80): 100 % of control and 96 % of control
T/C [11]: 98 % of control and 91 % of control
T/C (dose: 150.0 mg/kg/injection, schedule: Q04DX003 (ip), vehicle: saline with Tween-80): 110 % of control and 93 % of control
T/C [12]: 104 % of control
T/C [13]: 93 % of control

C/C(=N\NC(N)=S)c1cccc(/C(C)=N/NC(N)=S)n1
T/C [14]: 91 % of control
T/C [15]: 93 % of control
T/C (dose: 50.0 mg/kg/injection, schedule: Q04DX003 (ip), vehicle: saline with Tween-80): 89 % of control

Cc1cc2c(=O)cc(-c3ccccc3)oc2c(C(N)=O)c1C
T/C [1]: 99 % of control
T/C [2]: 98 % of control
T/C [3]: 93 % of control

Cc1ccc(C(=O)C=C(C(F)(F)F)C(F)(F)F)cc1
T/C (dose: 6.25 mg/kg/injection, schedule: Q01DX009 (ip), vehicle: saline): 100 % of control
T/C (dose: 6.25 mg/kg/injection, schedule: Q04DX003 (ip), vehicle: saline): 95 % of control
T/C (dose: 12.5 mg/kg/injection, schedule: Q01DX009 (ip), vehicle: saline): 100 % of control
T/C (dose: 12.5 mg/kg/injection, schedule: Q04DX003 (ip), vehicle: saline): 95 % of control
T/C (dose: 25.0 mg/kg/injection, schedule: Q01DX009 (ip), vehicle: saline): 109 % of control
T/C [16]: 104 % of control

CCCCCCC1(/C=C\c2ccc(Cl)c(Cl)c2)OCCO1
T/C [8]: 93 % of control
T/C [9]: 108 % of control
T/C [10]: 100 % of control

CCOc1c(N=Nc2ccccc2)c(C)nn1C(=S)SC
T/C (dose: 60.0 mg/kg/injection, schedule: Q01DX005 (ip), vehicle: Klucel + Tween-80): 110 % of control
T/C (dose: 120.0 mg/kg/injection, schedule: Q01DX005 (ip), vehicle: Klucel + Tween-80): 108 % of control
T/C (dose: 240.0 mg/kg/injection, schedule: Q01DX005 (ip), vehicle: Klucel + Tween-80): 100 % of control

CC(C)(C)OC(=O)C(C(=O)OC(C)(C)C)=C1C(=O)OCC1(C)C
T/C [17]: 95 % of control
T/C (dose: 200.0 mg/kg/injection, schedule: Q04DX003 (ip), vehicle: saline): 103 % of control
T/C [18]: 98 % of control

O=[N+]([O-])c1nncs1
T/C (dose: 6.25 mg/kg/injection, schedule: Q04DX003 (ip), vehicle: saline with Tween-80): 105 % of control
T/C [14]: 100 % of control
T/C [15]: 110 % of control

Nc1ccccc1Cl
T/C (dose: 31.25 mg/kg/injection, schedule: Q01DX009 (ip), vehicle: saline with Tween-80): 95 % of control
T/C (dose: 62.5 mg/kg/injection, schedule: Q01DX009 (ip), vehicle: saline with Tween-80): 109 % of control
T/C (dose: 125.0 mg/kg/injection, schedule: Q01DX009 (ip), vehicle: saline with Tween-80): 100 % of control

CCCCCCCCCCNCCSSCc1ccc(OC)cc1
T/C (dose: 6.25 mg/kg/injection, schedule: Q01DX005 (ip), vehicle: Klucel (hydroxypropylcellulose) (HPC)): 103 % of control
T/C (dose: 12.5 mg/kg/injection, schedule: Q01DX005 (ip), vehicle: Klucel (hydroxypropylcellulose) (HPC)): 103 % of control
T/C (dose: 25.0 mg/kg/injection, schedule: Q01DX005 (ip), vehicle: Klucel (hydroxypropylcellulose) (HPC)): 100 % of control

CC(C)(C)c1cc(C(C)(C)O)c2c(c1)C(C)(C)OS2(=O)=O
T/C (dose: 100.0 mg/kg/injection, schedule: Q04DX002 (ip), vehicle: Klucel (hydroxypropylcellulose) (HPC)): 96 % of control
T/C (dose: 200.0 mg/kg/injection, schedule: Q04DX002 (ip), vehicle: Klucel (hydroxypropylcellulose) (HPC)): 87 % of control
T/C (dose: 400.0 mg/kg/injection, schedule: Q04DX002 (ip), vehicle: Klucel (hydroxypropylcellulose) (HPC)): 97 % of control

Nc1nnc2nc(CC(=O)c3ccccc3)c(=O)[nH]n12
T/C (dose: 60.0 mg/kg/injection, schedule: Q01DX005 (ip), vehicle: saline): 96 % of control
T/C (dose: 120.0 mg/kg/injection, schedule: Q01DX005 (ip), vehicle: saline): 100 % of control
T/C (dose: 240.0 mg/kg/injection, schedule: Q01DX005 (ip), vehicle: saline): 100 % of control

CCCC1OCC(O)C(C(O)C(=O)CN(Cc2ccccc2)Cc2ccccc2)O1 (centres undefined)
T/C [5]: 100 % of control
T/C [6]: 98 % of control
T/C [7]: 98 % of control

COC1CCC2C(C1)C(C1CCCCC1)C1CCCCC1C2C1CCCCC1 (centres undefined)
T/C [5]: 96 % of control
T/C [6]: 93 % of control
T/C [7]: 95 % of control

O=C1NC(=O)C2(CC3CCCCC3CC2c2ccccc2)N1 (centres undefined)
T/C [11]: 89 % of control
T/C [12]: 91 % of control
T/C [13]: 100 % of control

ClC(Cl)=Nc1ccccc1
T/C (dose: 25.0 mg/kg/injection, schedule: Q01DX009 (ip), vehicle: Klucel (hydroxypropylcellulose) (HPC)): 103 % of control
T/C [8]: 103 % of control
T/C [9]: 110 % of control
T/C [10]: 93 % of control

Cc1nc2nnc(N)n2nc1C
T/C (dose: 100.0 mg/kg/injection, schedule: Q04DX003 (ip), vehicle: Klucel (hydroxypropylcellulose) (HPC)): 106 % of control
T/C (dose: 200.0 mg/kg/injection, schedule: Q04DX003 (ip), vehicle: Klucel (hydroxypropylcellulose) (HPC)): 97 % of control
T/C (dose: 400.0 mg/kg/injection, schedule: Q04DX003 (ip), vehicle: Klucel (hydroxypropylcellulose) (HPC)): 96 % of control

CCOC(=O)Cc1ccc(N(CCO)CCO)cc1
T/C [1]: 100 % of control
T/C [2]: 103 % of control
T/C [3]: 101 % of control

Cc1nc(N)cc(=O)[nH]1
T/C (dose: 50.0 mg/kg/injection, schedule: Q01DX009 (ip), vehicle: suspension in saline): 89 % of control
T/C (dose: 100.0 mg/kg/injection, schedule: Q01DX009 (ip), vehicle: suspension in saline): 93 % of control
T/C (dose: 200.0 mg/kg/injection, schedule: Q01DX009 (ip), vehicle: suspension in saline): 91 % of control
T/C (dose: 400.0 mg/kg/injection, schedule: Q01DX009 (ip), vehicle: suspension in saline): 101 % of control

COc1cccc2c1C(=O)c1c(O)c3c(c(O)c1C2=O)CC(O)(C(C)NCCN(C)C)CC3OC1CC(N)C(O)C(C)O1 (centres undefined)
T/C (dose: 0.63 mg/kg/injection, schedule: Q01DX009 (ip), vehicle: water): 103 % of control
T/C (dose: 1.25 mg/kg/injection, schedule: Q01DX009 (ip), vehicle: water): 106 % of control
T/C (dose: 2.5 mg/kg/injection, schedule: Q01DX009 (ip), vehicle: other): 121 % of control
T/C (dose: 20.0 mg/kg/injection, schedule: Q01DX009 (ip), vehicle: other): 153 % of control
T/C (dose: 40.0 mg/kg/injection, schedule: Q01DX009 (ip), vehicle: other): 157 % of control

CC(=O)N1CCCC2=C1CCCC2
T/C [16]: 100 % of control
T/C (dose: 50.0 mg/kg/injection, schedule: Q04DX003 (ip), vehicle: saline): 103 % of control
T/C [17]: 104 % of control and 92 % of control
T/C [18]: 101 % of control
